For one experiment, the target named is hNav1.7 (Homo sapiens, UniProt Q15858). Briefly: cell-based. Format: cell-based. To be noted: PatchXpress, tonic block, read-out: PX hNav1.7 Tonic IC50.
The target of a further experiment is rNav1.7 (Rattus norvegicus, UniProt O08562). Briefly: cell-based. To be noted: for IC50: PatchXpress, tonic block, rat Nav1.7, read-out: PX rNav1.7 Tonic IC50; for rNav1.7/hNav1.7: ratio of PX tonic IC50, rat Nav1.7 over human Nav1.7.
Another experiment concerns the target mNav1.7 (Mus musculus, UniProt Q62205). Briefly: cell-based. To be noted: for IC50: PatchXpress, tonic block, mouse Nav1.7, read-out: PX mNav1.7 Tonic IC50; for mNav1.7/hNav1.7: ratio of PX tonic IC50, mouse Nav1.7 over human Nav1.7.
Another experiment addresses hNav1.6 (Homo sapiens, UniProt Q9UQD0). Briefly: cell-based. The class given is cell-based. To be noted: Table 15.
In another experiment the target is hNav1.4 (Homo sapiens, UniProt P35499). Briefly: cell-based. The class given is cell-based. The following applies: Table 12.
Experiment [1] relates to TTX-sensitive Nav channels in mouse DRG neuron.

Where two headings read alike, the source gives them in different places.

hNav1.7, sequence (Q15858 whole entry): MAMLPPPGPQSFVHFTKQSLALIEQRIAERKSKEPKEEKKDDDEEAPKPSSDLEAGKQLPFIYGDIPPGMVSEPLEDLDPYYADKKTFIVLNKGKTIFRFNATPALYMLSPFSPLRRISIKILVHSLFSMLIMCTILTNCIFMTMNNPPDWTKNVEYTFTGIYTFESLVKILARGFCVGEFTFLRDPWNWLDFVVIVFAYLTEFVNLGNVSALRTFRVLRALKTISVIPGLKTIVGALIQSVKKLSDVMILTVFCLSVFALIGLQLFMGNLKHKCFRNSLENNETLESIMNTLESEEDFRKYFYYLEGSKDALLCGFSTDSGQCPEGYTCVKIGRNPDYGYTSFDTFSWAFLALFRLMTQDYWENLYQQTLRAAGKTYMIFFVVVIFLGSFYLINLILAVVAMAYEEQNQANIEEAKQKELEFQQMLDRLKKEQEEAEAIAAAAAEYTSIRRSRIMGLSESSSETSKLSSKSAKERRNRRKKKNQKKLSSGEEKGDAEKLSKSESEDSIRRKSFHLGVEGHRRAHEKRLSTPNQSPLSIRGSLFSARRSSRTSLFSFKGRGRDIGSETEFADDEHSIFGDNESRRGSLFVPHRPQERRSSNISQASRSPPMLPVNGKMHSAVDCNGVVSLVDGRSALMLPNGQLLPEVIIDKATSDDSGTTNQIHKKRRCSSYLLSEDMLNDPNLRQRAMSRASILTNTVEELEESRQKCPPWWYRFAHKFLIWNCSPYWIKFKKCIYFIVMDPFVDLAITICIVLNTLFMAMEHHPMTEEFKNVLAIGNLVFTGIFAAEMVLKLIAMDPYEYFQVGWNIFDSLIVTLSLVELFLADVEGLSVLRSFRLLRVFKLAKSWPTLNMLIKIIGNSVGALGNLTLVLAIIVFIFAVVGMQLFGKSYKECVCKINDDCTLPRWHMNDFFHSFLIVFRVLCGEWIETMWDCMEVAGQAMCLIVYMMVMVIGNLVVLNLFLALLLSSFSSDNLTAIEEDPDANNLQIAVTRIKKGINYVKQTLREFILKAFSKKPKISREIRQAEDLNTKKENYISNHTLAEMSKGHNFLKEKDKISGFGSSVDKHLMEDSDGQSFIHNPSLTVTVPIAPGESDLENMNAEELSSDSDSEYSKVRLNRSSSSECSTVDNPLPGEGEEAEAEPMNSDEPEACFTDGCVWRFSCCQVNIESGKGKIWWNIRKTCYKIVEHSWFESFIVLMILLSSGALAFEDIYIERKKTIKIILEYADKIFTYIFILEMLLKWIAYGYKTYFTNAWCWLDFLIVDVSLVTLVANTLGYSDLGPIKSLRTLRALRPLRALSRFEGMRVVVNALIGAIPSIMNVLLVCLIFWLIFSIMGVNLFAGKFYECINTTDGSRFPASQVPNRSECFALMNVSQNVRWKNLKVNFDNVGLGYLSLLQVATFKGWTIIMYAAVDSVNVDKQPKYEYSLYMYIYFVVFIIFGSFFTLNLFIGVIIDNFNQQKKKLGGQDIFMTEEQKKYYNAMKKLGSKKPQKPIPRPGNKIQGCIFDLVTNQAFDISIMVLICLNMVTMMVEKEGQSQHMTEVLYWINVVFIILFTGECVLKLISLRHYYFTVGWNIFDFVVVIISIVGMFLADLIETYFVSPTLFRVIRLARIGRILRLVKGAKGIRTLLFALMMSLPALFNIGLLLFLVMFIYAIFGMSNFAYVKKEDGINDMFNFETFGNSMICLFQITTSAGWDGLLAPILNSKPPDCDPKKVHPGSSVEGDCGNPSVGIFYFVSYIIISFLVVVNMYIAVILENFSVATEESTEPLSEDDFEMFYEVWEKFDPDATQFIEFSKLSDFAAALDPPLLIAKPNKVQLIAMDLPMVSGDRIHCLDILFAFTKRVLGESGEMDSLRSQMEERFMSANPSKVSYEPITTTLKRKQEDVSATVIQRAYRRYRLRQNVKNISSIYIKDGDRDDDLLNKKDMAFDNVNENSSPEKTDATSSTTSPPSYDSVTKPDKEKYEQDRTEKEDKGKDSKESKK
mNav1.7, sequence (Q62205 whole entry): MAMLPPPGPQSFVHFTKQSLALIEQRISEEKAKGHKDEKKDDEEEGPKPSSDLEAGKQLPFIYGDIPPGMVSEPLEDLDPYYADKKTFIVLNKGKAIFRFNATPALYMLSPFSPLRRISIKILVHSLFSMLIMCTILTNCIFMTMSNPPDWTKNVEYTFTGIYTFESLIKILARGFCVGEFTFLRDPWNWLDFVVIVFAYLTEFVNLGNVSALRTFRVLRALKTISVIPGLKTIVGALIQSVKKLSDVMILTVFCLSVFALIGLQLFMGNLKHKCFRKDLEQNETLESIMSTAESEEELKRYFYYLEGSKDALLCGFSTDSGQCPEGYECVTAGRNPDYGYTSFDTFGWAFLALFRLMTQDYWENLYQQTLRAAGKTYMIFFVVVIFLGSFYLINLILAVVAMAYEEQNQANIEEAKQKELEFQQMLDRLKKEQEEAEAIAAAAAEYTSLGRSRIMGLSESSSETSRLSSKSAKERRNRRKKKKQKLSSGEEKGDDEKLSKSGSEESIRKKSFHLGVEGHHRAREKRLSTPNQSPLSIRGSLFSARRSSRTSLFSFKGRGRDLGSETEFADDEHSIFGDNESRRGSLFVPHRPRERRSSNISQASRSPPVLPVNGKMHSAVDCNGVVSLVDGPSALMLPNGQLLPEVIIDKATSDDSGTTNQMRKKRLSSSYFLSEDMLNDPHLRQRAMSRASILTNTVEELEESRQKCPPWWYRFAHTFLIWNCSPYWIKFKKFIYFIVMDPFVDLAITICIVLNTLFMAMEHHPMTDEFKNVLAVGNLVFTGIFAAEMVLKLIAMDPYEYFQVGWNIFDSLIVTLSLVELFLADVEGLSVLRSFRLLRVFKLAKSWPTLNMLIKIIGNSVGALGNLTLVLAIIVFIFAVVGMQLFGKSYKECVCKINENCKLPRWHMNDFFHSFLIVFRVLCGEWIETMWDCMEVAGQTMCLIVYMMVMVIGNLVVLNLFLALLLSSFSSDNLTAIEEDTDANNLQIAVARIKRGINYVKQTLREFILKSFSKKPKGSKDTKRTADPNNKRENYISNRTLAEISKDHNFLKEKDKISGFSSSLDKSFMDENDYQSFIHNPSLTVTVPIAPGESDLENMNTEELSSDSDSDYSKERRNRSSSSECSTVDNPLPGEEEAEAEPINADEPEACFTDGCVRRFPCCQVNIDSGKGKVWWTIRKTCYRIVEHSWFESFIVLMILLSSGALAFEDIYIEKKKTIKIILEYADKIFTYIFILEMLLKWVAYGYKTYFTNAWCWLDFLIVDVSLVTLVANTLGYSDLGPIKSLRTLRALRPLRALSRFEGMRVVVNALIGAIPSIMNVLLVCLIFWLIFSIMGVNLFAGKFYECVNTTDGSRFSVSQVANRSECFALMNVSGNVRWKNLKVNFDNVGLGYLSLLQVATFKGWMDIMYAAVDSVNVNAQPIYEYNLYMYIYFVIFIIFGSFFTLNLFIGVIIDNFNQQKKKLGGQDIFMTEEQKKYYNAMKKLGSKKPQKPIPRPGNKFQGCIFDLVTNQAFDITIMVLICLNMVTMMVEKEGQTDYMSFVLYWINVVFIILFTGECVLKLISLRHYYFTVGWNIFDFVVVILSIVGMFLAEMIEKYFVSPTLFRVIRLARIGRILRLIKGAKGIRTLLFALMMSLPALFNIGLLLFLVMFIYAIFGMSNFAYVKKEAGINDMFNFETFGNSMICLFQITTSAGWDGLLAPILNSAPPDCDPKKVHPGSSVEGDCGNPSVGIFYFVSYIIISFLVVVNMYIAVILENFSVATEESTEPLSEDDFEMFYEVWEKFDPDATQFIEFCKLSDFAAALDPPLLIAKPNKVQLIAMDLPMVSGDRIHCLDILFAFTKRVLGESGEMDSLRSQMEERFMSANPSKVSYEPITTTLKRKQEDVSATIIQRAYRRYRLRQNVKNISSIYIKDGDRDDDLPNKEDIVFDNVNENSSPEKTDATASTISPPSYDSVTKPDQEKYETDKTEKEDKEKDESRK

With `C#CC[C@@H]1NC(=O)[C@H](CC(=O)O)NC(=O)[C@@H]2CSSC[C@@H]3NC(=O)[C@H](CCCNC(=N)N)NC(=O)[C@H](CC(C)C)NC(=O)CNC(=O)[C@H](CCC(=O)O)NC(=O)[C@H](CSSC[C@H](NC(=O)[C@@H](N)Cc4ccc(O)cc4)C(=O)N[C@@H](CCC(N)=O)C(=O)N[C@@H](CCCCN)C(=O)N[C@@H](Cc4c[nH]c5ccccc45)C(=O)N[C@@H](CCCC)C(=O)N[C@@H](Cc4c[nH]c5ccccc45)C(=O)N[C@@H]([C@@H](C)O)C(=O)N2)NC(=O)[C@H](CSSC[C@@H](C(=O)N[C@@H](CCCNC(=N)N)C(=O)N[C@@H](CCCCN)C(=O)N[C@@H](CCC(=O)O)C(=O)N[C@H](C(N)=O)[C@@H](C)CC)NC(=O)[C@H](Cc2c[nH]c4ccccc24)NC(=O)[C@H](CC(C)C)NC(=O)[C@H](CCCCN)NC3=O)NC(=O)[C@H](C)NC(=O)[C@H](CCCNC(=N)N)NC(=O)[C@H](CCCCN)NC1=O` [[Nle6; Pra11; Glu28]JzTx-V(1-29)], at hNav1.7 (human Nav1.7), the IC50 (in general, the concentration at which inhibition is half-maximal) worked out at 0.473 nM. Besides, on rNav1.7, the concentration for half-maximal inhibition (IC50) turned out to be 3.83 nM and the rNav1.7/hNav1.7 came out at 8.10. Also, on mNav1.7, the IC50 was 3.69 nM and the mNav1.7/hNav1.7 turned out to be 7.81.
Take `C#CC[C@H](N)C(=O)N[C@@H](Cc1ccc(O)cc1)C(=O)N[C@H]1CSSC[C@@H]2NC(=O)[C@@H]3CSSC[C@@H](C(=O)N[C@@H](CCCNC(=N)N)C(=O)N[C@@H](CCCCN)C(=O)N[C@@H](CCC(=O)O)C(=O)N[C@H](C(N)=O)[C@@H](C)CC)NC(=O)[C@H](Cc4c[nH]c5ccccc45)NC(=O)[C@H](CC(C)C)NC(=O)[C@H](CCCCN)NC(=O)[C@H](CSSC[C@H](NC(=O)[C@H]([C@@H](C)O)NC(=O)[C@H](Cc4c[nH]c5ccccc45)NC(=O)[C@H](CCCC)NC(=O)[C@H](Cc4c[nH]c5ccccc45)NC(=O)[C@H](CCCCN)NC(=O)[C@H](CCC(N)=O)NC1=O)C(=O)N[C@@H](CC(=O)O)C(=O)N[C@@H](CO)C(=O)N[C@@H](CCCCN)C(=O)N[C@@H](CCCNC(=N)N)C(=O)N[C@@H](CCC(=O)O)C(=O)N3)NC(=O)[C@H](CCCNC(=N)N)NC(=O)[C@H](CC(C)C)NC(=O)CNC(=O)[C@H](CCC(=O)O)NC2=O` [compound 717]: on hNav1.6 (ratio of PX tonic IC50 values), the Nav1.6/Nav1.7 is given as 2558. Besides, the half-inhibitory concentration (IC50) at hNav1.6 (read-out: PX hNav1.6 Tonic IC50) stood at 2490 nM; on hNav1.4 (PatchXpress, tonic block, read-out: PX hNav1.4 Tonic IC50), 325 nM; at hNav1.7 (Table 12), 0.975 nM; in experiment [1] it was 99.8 nM. Further, on hNav1.4 (ratio of PX tonic IC50 values), the Nav1.4/Nav1.7 is 333. Besides, the “block of TTX-sensitive Nav current” value in experiment [1] (1000 nM, C57 Black 6 mouse DRG neuron) is “approximately 90%”.
Consider `C#CC[C@H](N)C(=O)N[C@@H](Cc1ccc(O)cc1)C(=O)N[C@H]1CSSC[C@@H]2NC(=O)[C@@H]3CSSC[C@@H](C(=O)N[C@@H](CCCNC(=N)N)C(=O)N[C@@H](CCCCN)C(=O)N[C@@H](CCC(=O)O)C(=O)N[C@@H](Cc4c[nH]c5ccccc45)C(N)=O)NC(=O)[C@H](Cc4c[nH]c5ccccc45)NC(=O)[C@H](CC(C)C)NC(=O)[C@H](CCCCN)NC(=O)[C@H](CSSC[C@H](NC(=O)[C@H]([C@@H](C)O)NC(=O)[C@H](Cc4c[nH]c5ccccc45)NC(=O)[C@H](CCCC)NC(=O)[C@H](Cc4c[nH]c5ccccc45)NC(=O)[C@H](CCCCN)NC(=O)[C@H](CCC(N)=O)NC1=O)C(=O)N[C@@H](CC(=O)O)C(=O)N[C@@H](CO)C(=O)N[C@@H](CCCCN)C(=O)N[C@@H](CCCNC(=N)N)C(=O)N[C@@H](C)C(=O)N3)NC(=O)[C@H](CCCNC(=N)N)NC(=O)[C@H](CC(C)C)NC(=O)CNC(=O)[C@H](CCC(=O)O)NC2=O` [Pra-[Nle6; Glu28; Trp29]JzTx-V(1-29)], for which the IC50 at hNav1.7 (human Nav1.7) was determined as 0.352 nM. For the same compound, on rNav1.7, the IC50 was determined as 0.097 nM and the rNav1.7/hNav1.7 is listed as 0.27. In addition, on mNav1.7, the 50% inhibitory concentration (IC50) came to 3.11 nM and the mNav1.7/hNav1.7 is recorded as 8.82.
For the compound `C#CC[C@H](NC(=O)[C@@H](N)CCC(=O)O)C(=O)N[C@H]1CSSC[C@@H]2NC(=O)[C@@H]3CSSC[C@@H](C(=O)N[C@@H](CCCNC(=N)N)C(=O)N[C@@H](CCCCN)C(=O)N[C@@H](CCC(=O)O)C(=O)N[C@H](C(N)=O)[C@@H](C)CC)NC(=O)[C@H](Cc4c[nH]c5ccccc45)NC(=O)[C@H](CC(C)C)NC(=O)[C@H](CCCCN)NC(=O)[C@H](CSSC[C@H](NC(=O)[C@H]([C@@H](C)O)NC(=O)[C@H](Cc4c[nH]c5ccccc45)NC(=O)[C@H](CCCC)NC(=O)[C@H](Cc4c[nH]c5ccccc45)NC(=O)[C@H](CCCCN)NC(=O)[C@H](CCC(N)=O)NC1=O)C(=O)N[C@@H](CC(=O)O)C(=O)N[C@@H](CO)C(=O)N[C@@H](CCCCN)C(=O)N[C@@H](CCCNC(=N)N)C(=O)N[C@@H](CCC(=O)O)C(=O)N3)NC(=O)[C@H](CCCNC(=N)N)NC(=O)[C@H](CC(C)C)NC(=O)CNC(=O)[C@H](CCC(=O)O)NC2=O` [Glu-[Pra1; Nle6; Glu14, 28]JzTx-V(1-29)], on rNav1.7, the concentration for half-maximal inhibition (IC50) was found to be 3.34 nM and the rNav1.7/hNav1.7 was found to be 5.94. Moreover, at mNav1.7, the half-inhibitory concentration (IC50) stood at 16.1 nM and the mNav1.7/hNav1.7 is on record as 28.63.
The matching figures for `C#CC[C@H](N)C(=O)N[C@@H](Cc1ccc(O)cc1)C(=O)N[C@H]1CSSC[C@@H]2NC(=O)[C@@H]3CSSC[C@@H](C(=O)N[C@@H](CCCNC(=N)N)C(=O)N[C@@H](CCCCN)C(=O)N[C@@H](CCC(=O)O)C(=O)N[C@H](C(N)=O)[C@@H](C)CC)NC(=O)[C@H](Cc4c[nH]c5ccccc45)NC(=O)[C@H](C4CCCCC4)NC(=O)[C@H](CCCCN)NC(=O)[C@H](CSSC[C@H](NC(=O)[C@H]([C@@H](C)O)NC(=O)[C@H](Cc4c[nH]c5ccccc45)NC(=O)[C@H](CCCC)NC(=O)[C@H](Cc4c[nH]c5ccccc45)NC(=O)[C@H](CCCCN)NC(=O)[C@H](CCC(N)=O)NC1=O)C(=O)N[C@@H](CC(=O)O)C(=O)N[C@@H](CO)C(=O)N[C@@H](CCCCN)C(=O)N[C@@H](CCCNC(=N)N)C(=O)N[C@@H](C)C(=O)N3)NC(=O)[C@H](CCCNC(=N)N)NC(=O)[C@H](CC(C)C)NC(=O)CNC(=O)[C@H](CCC(=O)O)NC2=O` [Pra-[Nle6; Chg23; Glu28]JzTx-V(1-29)]: 3.27 nM, 6.68, 0.884 nM and 1.81.
The like results for `C#CC[C@H](N)C(=O)N[C@@H](Cc1ccc(O)cc1)C(=O)N[C@H]1CSSC[C@@H]2NC(=O)[C@@H]3CSSC[C@@H](C(=O)N[C@@H](CCCNC(=N)N)C(=O)N[C@@H](CCCCN)C(=O)N[C@@H](CCC(=O)O)C(=O)N[C@@H](Cc4ccccc4)C(N)=O)NC(=O)[C@H](Cc4c[nH]c5ccccc45)NC(=O)[C@H](CC(C)C)NC(=O)[C@H](CCCCN)NC(=O)[C@H](CSSC[C@H](NC(=O)[C@H]([C@@H](C)O)NC(=O)[C@H](Cc4c[nH]c5ccccc45)NC(=O)[C@H](CCCC)NC(=O)[C@H](Cc4c[nH]c5ccccc45)NC(=O)[C@H](CCCCN)NC(=O)[C@H](CCC(N)=O)NC1=O)C(=O)N[C@@H](CC(=O)O)C(=O)N[C@@H](CO)C(=O)N[C@@H](CCCCN)C(=O)N[C@@H](CCCNC(=N)N)C(=O)N[C@@H](C)C(=O)N3)NC(=O)[C@H](CCCNC(=N)N)NC(=O)[C@H](CC(C)C)NC(=O)CNC(=O)[C@H](CCC(=O)O)NC2=O` [Pra-[Nle6; Glu28; Phe29]JzTx-V(1-29)] were, in that order, 0.296 nM, 0.76, 3.45 nM and 8.90.
The matching figures for `C#CC[C@H](N)C(=O)N[C@@H](Cc1ccc(O)cc1)C(=O)N[C@H]1CSSC[C@@H]2NC(=O)[C@@H]3CSSC[C@@H](C(=O)N[C@@H](CCCNC(=N)N)C(=O)N[C@@H](CCCCN)C(=O)N[C@@H](CCC(=O)O)C(=O)N[C@H](C(N)=O)[C@@H](C)CC)NC(=O)[C@H](Cc4c[nH]c5ccc(Br)cc45)NC(=O)[C@H](CC(C)C)NC(=O)[C@H](CCCCN)NC(=O)[C@H](CSSC[C@H](NC(=O)[C@H]([C@@H](C)O)NC(=O)[C@H](Cc4c[nH]c5ccccc45)NC(=O)[C@H](CCCC)NC(=O)[C@H](Cc4c[nH]c5ccccc45)NC(=O)[C@H](CCCCN)NC(=O)[C@H](CCC(N)=O)NC1=O)C(=O)N[C@@H](CC(=O)O)C(=O)N[C@@H](CO)C(=O)N[C@@H](CCCCN)C(=O)N[C@@H](CCCNC(=N)N)C(=O)N[C@@H](C)C(=O)N3)NC(=O)[C@H](CCCNC(=N)N)NC(=O)[C@H](CC(C)C)NC(=O)CNC(=O)[C@H](CCC(=O)O)NC2=O` [Pra-[Nle6; 5-BrW24; Glu28]JzTx-V(1-29)]: 2.43 nM, 62.26, 0.911 nM and 23.34.

Source of the values: patent US10344060B2 (priority 2013, dated 2019).
